These are literature values, as cited in patent US9687472B2, “Use of antioxidants as an adjuvant to immune stimulators to augment tumor immunity and prevent toxicity associated with oxidative stress” (BATU BIOLOGICS, priority 2014, dated 2017).

Series [1] concerns human umbilical vein endothelial (HUVEC) cells. To be noted: in response to TNF-alpha, in vitro.
Another series concerns endothelial cell. To be noted: in vitro.
In series [2] the test system is circulating apoptotic endothelial cells. To be noted: 2.5 g intravenously and 3 days of 4 g per day oral.
The conditions of series [3]: 10 mg/kg intravenously before induction of sepsis.
For series [4] the following is noted: i.v. 66 mg/kg/hr for 24 hours.
The subject of another series is human endothelial cells. Conditions: hypoxic (24 hours; 1% O(2))/reoxygenated (3 hours; 21% O(2)) cells.
The subject of another series is complement system. Conditions: patients.

As for `O=C1O[C@H]([C@@H](O)CO)C(O)=C1O` [AA, ascorbic acid], in series [1], the “endothelial cell expression of ICAM-1” value is given as “reduce”. Besides, in the series on endothelial cell, the “TNF-alpha induced endothelial cell apoptosis” value is “reduction”. Also, the “circulating apoptotic endothelial cells” value in series [2] is “reduction”. Moreover, in series [3], the survival is listed as 50%. For the same molecule, in series [4], the “24 hr total fluid infusion volume” value was “statistically significant reductions”, the “fluid retention (indicative of vascular leakage)” value is on record as “statistically significant reductions” and the “need for mechanical ventilation” value is 12.1 ± 8.8 days.
`O=C[C@@H](O)[C@@H](O)[C@H](O)[C@H](O)CO` [D-mannose]: the “complement activation (iC3b deposition)” value with human endothelial cells is given as “blocked activation”.
As for `O=C[C@H](O)[C@H](O)[C@@H](O)[C@@H](O)CO` [L-mannose], the “complement activation (iC3b deposition)” value in the series on human endothelial cells is recorded as “not”.
Turning to `CC(=O)N[C@H]1C(O)O[C@H](CO)[C@@H](O)[C@@H]1O` (stereo partly drawn) [N-acetyl-D-glucosamine], the “complement activation (iC3b deposition)” value in the series on human endothelial cells is “blocked activation”.

B1: C1 esterase inhibitor: complement inhibitor (protein, UniProt P05155 23-500, looked up)
Plasma protease C1 inhibitor: NPNATSSSSQDPESLQDRGEGKVATTVISKMLFVEPILEVSSLPTTNSTTNSATKITANTTDEPTTQPTTEPTTQPTIQPTQPTTQLPTDSPTQPTTGSFCPGPVTLCSDLESHSTEAVLGDALVDFSLKLYHAFSAMKKVETNMAFSPFSIASLLTQVLLGAGENTKTNLESILSYPKDFTCVHQALKGFTTKGVTSVSQIFHSPDLAIRDTFVNASRTLYSSSPRVLSNNSDANLELINTWVAKNTNNKISRLLDSLPSDTRLVLLNAIYLSAKWKTTFDPKKTRMEPFHFKNSVIKVPMMNSKKYPVAHFIDQTLKAKVGQLQLSHNLSLVILVPQNLKHRLEDMEQALSPSVFKAIMEKLEMSKFQPTLLTLPRIKVTTSQDMLSIMEKLEFFDFSYDLNLCGLTEDPDLQVSAMQHQTVLELTETGVEAAAASAISVARTLLVFEVQQPFLFVLWDQQHKFPVFMGRVYDPRA
Take B1: in the series on complement system, the “IL-2 induced hypotension and complement activation” value is listed as “capable of reducing”.
